Where two headings read alike, the source gives them in different places.

Data set [1] concerns cancer cells. Briefly: Inhibition of cancer growth, cancer invasion, cell invasion or cancer cell invasion. Type of data set: cell-based. From the text: The program is based on our purification methods and biological assays including the MTT assay. See International Application No. PCT/US05/31900, filed Sep. 7, 2005, U.S. Serial No. 11/289,142, filed Nov. 28, 2005, and U.S. Serial No. 11/131551, filed May 17, 2005, and PCT/US2008/002086, 1188-ALA-PCT, filed Feb. 15, 2008, 12/344,682, 1020-B1-US, filed Dec. 29, 2008. The details of Analysis of gene expression of ES2 cells after Y-treatment by Microarray, Data Analysis Methods and Western blot in PCT/US2008/002086, 1188-ALA-PCT, filed Feb. 15, 2008, and the cell invasion experiments methods in International Application PCT/US2010/0042240, filed Jul. 16, 2010.

The subject of a further data set is Erythrocytes (RBC). Kind of data set: The haemolytic assay. Conditions: in words, no concentration given.
The test system of data set [2] is cancer cells. Briefly: MTT cytotoxic assay of esterification products (Cytotoxicity activity). Type of data set: cell-based, human. In a few lines: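 Cytotoxicity was read by MTT (Carmichael method, modified), with cells seeded 24 h ahead of treatment. Sixteen human cancer lines spanning bone, lung, bladder, ovary, colon, pancreas, prostate, skin, mouth, kidney, breast, liver, brain, leukemia and cervix were used. Test samples were acyl chloride esterification products of triterpenes, as mixtures or HPLC-purified compounds.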

Setting [3] is: esterification products isolated with HPLC, graded strong / moderate / weak.
Setting [4] is: esterification products of E4A—Tig—N with senecioyl chloride.

Protocol for Erythrocytes (RBC): Erythrocytes (RBC) were isolated from human blood (EDTA whole blood, collected randomly). 50 ul of the 10% RBC suspension (in PBS) was added to 2 ml of sample solutions (concentration range from 0.1 ug/ml to 400 ug/ml) in PBS. The mixture was vortexed briefly and sat for 60 min at room temperature. The mixture was spun at 3 K for 10 min and the relative amounts of lysed hemoglobin in the supernatant were measured at 540 nm.

For `CC1O[C@@H](OC2[C@H](OC3[C@H](O[C@H]4C(O[C@@H]5OC(CO)[C@H](O)[C@@H](O)C5O)[C@H](O[C@H]5CC[C@@]6(C)C(CC[C@]7(C)C6CC[C@]68O[C@H](O)[C@]9(C6CC(C)(C)[C@@H](O)[C@@H]9O)[C@H](O)C[C@]87C)C5(C)C)OC(C(=O)O)[C@H]4O)OC(CO)[C@H](O)[C@H]3O)OC(C)[C@H](O)[C@@H]2O)C(O)[C@@H](O)[C@H]1O` (some centres unmarked) [AKOH-M10], in the data set on cancer cells [1], the “inhibiting cancer growth, cancer invasion, cell invasion or cancer cell invasion” value (shortened to “inhibiting cancer growth”) is given as “do not show the ability”.
For `CC1(C)CC2C3=CCC4[C@@]5(C)CC[C@H](O[C@@H]6OC(C(=O)O)[C@@H](O)[C@@H](O[C@@H]7O[C@@H](CO)[C@@H](O)C7O)C6O[C@@H]6OC(CO)[C@H](O)[C@@H](O)C6O)C(C)(C)C5CC[C@@]4(C)[C@]3(C)[C@@H](O)[C@@H](O)[C@@]2(CO)[C@@H](O)[C@@H]1O` (some centres unmarked) [AKOH], in the data set with cancer cells [1], the anti-cancer activity result is “no anti-cancer activity” and the “inhibiting cancer growth” value is “no effect”. Moreover, the “inhibiting cancer growth” value in the data set on cancer cells [1] (listed as AKOH-Y) was “do not show the ability”. Besides, the hemolytic activity result in the data set on Erythrocytes (RBC) is given as “no hemolytic activity”.
For `CC1(C)CC2C3=CCC4C5(C)CCC(O)C(C)(CO)C5CCC4(C)C3(C)C(O)C(O)C2(CO)C(O)C1O` (centres unmarked) [Compound E4AY2], the anti-cancer activity result in the data set on cancer cells [1] was “no anti-cancer activity”. For the same compound, in the data set on Erythrocytes (RBC), the hemolytic activity entry is given as “no hemolytic activity”.
Regarding `CC1(C)CC2C3=CCC4C5(C)CCC(O)C(C)(C)C5CCC4(C)C3(C)CC(O)C2(CO)C(O)C1O` (centres unmarked) [Compound E5A], in the data set with cancer cells [1], the anti-cancer activity result is “no anti-cancer activity” and the “inhibiting cancer growth” value is “no effect”. The hemolytic activity result in the data set with Erythrocytes (RBC) is recorded as “no hemolytic activity”.
`CC=C(C)C(=O)OCC1(C)C(O)CCC2(C)C1CCC1(C)C2CC=C2C3CC(C)(C)C(O)C(OC(=O)CCCCC)C3(COC(=O)C(C)=CC)C(O)CC21C` (centres unmarked) [Tig—R—Hex—3]: in the data set with cancer cells [2] (setting [3]), the Cytotoxicity activity result is “moderate”.
Turning to `CC=C(C)C(=O)OCC1(C)C(OC(=O)CCCCC)CCC2(C)C1CCC1(C)C2CC=C2C3CC(C)(C)C(O)C(O)C3(COC(=O)C(C)=CC)C(O)CC21C` (centres unmarked) [Tig—R—Hex—4], in the data set with cancer cells [2] (setting [3]), the Cytotoxicity activity result is “moderate”.
The same measure, in the same setting: the value for `CC=C(C)C(=O)OCC1(C)C(OC(=O)CCCCC)CCC2(C)C1CCC1(C)C2CC=C2C3CC(C)(C)C(OC(=O)CCCCC)C(O)C3(COC(=O)C(C)=CC)C(O)CC21C` (centres unmarked) [Tig—R—Hex—5] was “weak”.
`CC=C(C)C(=O)OCC1(C)C(OC(=O)CCCCC)CCC2(C)C1CCC1(C)C2CC=C2C3CC(C)(C)C(O)C(OC(=O)CCCCC)C3(COC(=O)C(C)=CC)C(O)CC21C` (centres unmarked) [Tig—R—Hex—6]: the Cytotoxicity activity entry in the data set with cancer cells [2] (setting [3]) is recorded as “weak”.
Still for that read-out and setting: the entry for `C=CCCC(=O)OC1C(OC(=O)CCC=C)C2(COC(=O)C(C)=CC)C(O)CC3(C)C(=CCC4C5(C)CCC(O)C(C)(COC(=O)C(C)=CC)C5CCC43C)C2CC1(C)C` (centres unmarked) [Tig—R—Pen—1] is “weak”.
On the same count and under the same terms, the entry for `C=CCCC(=O)OC1C(O)C2(COC(=O)C(C)=CC)C(O)CC3(C)C(=CCC4C5(C)CCC(O)C(C)(COC(=O)C(C)=CC)C5CCC43C)C2CC1(C)C` (centres unmarked) [Tig—R—Pen—2] is “moderate”.
Still for that read-out and setting: the value for `C=CCCC(=O)OC1C(O)C(C)(C)CC2C3=CCC4C5(C)CCC(O)C(C)(COC(=O)C(C)=CC)C5CCC4(C)C3(C)CC(O)C21COC(=O)C(C)=CC` (centres unmarked) [Tig—R—Pen—3] was “moderate”; that for `C=CCCC(=O)OC1CCC2(C)C(CCC3(C)C2CC=C2C4CC(C)(C)C(O)C(O)C4(COC(=O)C(C)=CC)C(O)CC23C)C1(C)COC(=O)C(C)=CC` (centres unmarked) [Tig—R—Pen—4] was “moderate”; that for `CC=C(C)C(=O)OCC1(C)C(O)CCC2(C)C1CCC1(C)C2CC=C2C3CC(C)(C)C(OC(=O)C=C(C)C)C(OC(=O)C=C(C)C)C3(COC(=O)C(C)=CC)C(O)CC21C` (centres unmarked) [Tig—R—Sen—1] was “weak”.
On to `CC=C(C)C(=O)OCC1(C)C(O)CCC2(C)C1CCC1(C)C2CC=C2C3CC(C)(C)C(OC(=O)C=C(C)C)C(O)C3(COC(=O)C(C)=CC)C(O)CC21C` (centres unmarked) [Tig—R—Sen—2], for which the Cytotoxicity activity result in the data set with cancer cells [2] (setting [3]) was “moderate”.
Consider `CC=C(C)C(=O)OCC1(C)C(O)CCC2(C)C1CCC1(C)C2CC=C2C3CC(C)(C)C(O)C(OC(=O)C=C(C)C)C3(COC(=O)C(C)=CC)C(O)CC21C` (centres unmarked) [Tig—R—Sen—3], for which, in the data set on cancer cells [2] (setting [3]), the Cytotoxicity activity result was “moderate”.
With `CC=C(C)C(=O)OCC1(C)C(OC(=O)C=C(C)C)CCC2(C)C1CCC1(C)C2CC=C2C3CC(C)(C)C(O)C(O)C3(COC(=O)C(C)=CC)C(O)CC21C` (centres unmarked) [Tig—R—Sen—4], the Cytotoxicity activity entry in the data set with cancer cells [2] (setting [3]) was “moderate”.
Still for that read-out and setting: the value for `CC=C(C)C(=O)OCC1(C)C(OC(=O)C=C(C)C)CCC2(C)C1CCC1(C)C2CC=C2C3CC(C)(C)C(OC(=O)C=C(C)C)C(O)C3(COC(=O)C(C)=CC)C(O)CC21C` (centres unmarked) [Tig—R—Sen—5] was “weak”; that for `CC=C(C)C(=O)OCC1(C)C(OC(=O)C=C(C)C)CCC2(C)C1CCC1(C)C2CC=C2C3CC(C)(C)C(O)C(OC(=O)C=C(C)C)C3(COC(=O)C(C)=CC)C(O)CC21C` (centres unmarked) [Tig—R—Sen—6] was “weak”.
`CC=C(C)C(=O)OCC1(C)C(O)CCC2(C)C1CCC1(C)C2CC=C2C3CC(C)(C)C(OC(=O)C=C(C)C)C(O)C3(COC(=O)C=C(C)C)C(O)CC21C` (centres unmarked) [Tig—Sen—2]: in the data set with cancer cells [2] (setting [4]), the Cytotoxicity activity entry is “moderate”.
The same measure, in the same setting: the entry for `CC=C(C)C(=O)OCC1(C)C(O)CCC2(C)C1CCC1(C)C2CC=C2C3CC(C)(C)C(O)C(OC(=O)C=C(C)C)C3(COC(=O)C=C(C)C)C(O)CC21C` (centres unmarked) [Tig—Sen—3] is “moderate”.
The same measure, in the same setting: the value for `CC=C(C)C(=O)OCC1(C)C(OC(=O)C=C(C)C)CCC2(C)C1CCC1(C)C2CC=C2C3CC(C)(C)C(O)C(O)C3(COC(=O)C=C(C)C)C(O)CC21C` (centres unmarked) [Tig—Sen—4] was “moderate”; that for `CC=C(C)C(=O)OCC1(C)C(O)CCC2(C)C1CCC1(C)C2CC=C2C3CC(C)(C)C(OC(=O)C=C(C)C)C(O)C3(CO)C(O)CC21C` (centres unmarked) [Tig—Sen—5] was “moderate”; that for `CC=C(C)C(=O)OCC1(C)C(O)CCC2(C)C1CCC1(C)C2CC=C2C3CC(C)(C)C(O)C(OC(=O)C=C(C)C)C3(CO)C(O)CC21C` (centres unmarked) [Tig—Sen—6] was “moderate”.

The record behind these values is US20230340012A1, “NATURAL AND SYNTHETIC COMPOUNDS FOR TREATING CANCER AND OTHER DISEASES” (PACIFIC ARROW LIMITED, priority 2009, published 2023).
